In patent publication US9829495B2, “Method for differentially diagnosing ACTH-dependent Cushing's syndrome” (Corcept Therapeutics, Inc., priority 2015, dated 2017):

System: ACTH from the pituitary gland
Test: ACTH stimulation after oral mifepristone in persons with normal HPA function
Assay type: in vivo, human
Details: oral dose of 300-1500 mg; persons having normal hypothalamic-pituitary-adrenal axis (HPA) function
Description: GRA is administered at a dosage that is sufficient to increase ACTH in the pituitary gland by at least two fold in persons with normal HPA functions. In one embodiment, the GRA is mifepristone. In one embodiment, mifepristone is administered orally to the patient. […] In one embodiment, the GRA is administered at 11 pm the night before IPSS. Following the diagnosis of ACTH dependent Cushing's syndrome, they then undergo IPSS to identify the source of abnormal ACTH secretion, i.e., whether it is pituitary or ectopic. […] Another 0.018 microcatherter is inserted into the peripheral jugular vein. A 5,000 unit bolus of heparin is administered to the veins to prevent venous sinus thrombosis.

Structure (SMILES): CC#C[C@]1(O)CC[C@H]2[C@@H]3CCC4=CC(=O)CCC4=C3[C@@H](c3ccc(N(C)C)cc3)C[C@@]21C [mifepristone, 17-β-hydrox-11-β-(4-dimethyl-aminophenyl)17-α-(1-propynyl)estra-4,9-dien-3-one]
- increase ACTH from the pituitary gland: at least two-fold
